In ChEMBL document CHEMBL1127152, “Design and synthesis of achiral 5-lipoxygenase inhibitors employing the cyclobutyl group” (Bioorg Med Chem Lett, 1993) one finds IC50 data, which are given here for 3 molecules.

pIC50: −log10 of the molar value.

The target of this test is T1, Polyunsaturated fatty acid 5-lipoxygenase (Homo sapiens, UniProt P09917).
T1 sequence (P09917 whole entry): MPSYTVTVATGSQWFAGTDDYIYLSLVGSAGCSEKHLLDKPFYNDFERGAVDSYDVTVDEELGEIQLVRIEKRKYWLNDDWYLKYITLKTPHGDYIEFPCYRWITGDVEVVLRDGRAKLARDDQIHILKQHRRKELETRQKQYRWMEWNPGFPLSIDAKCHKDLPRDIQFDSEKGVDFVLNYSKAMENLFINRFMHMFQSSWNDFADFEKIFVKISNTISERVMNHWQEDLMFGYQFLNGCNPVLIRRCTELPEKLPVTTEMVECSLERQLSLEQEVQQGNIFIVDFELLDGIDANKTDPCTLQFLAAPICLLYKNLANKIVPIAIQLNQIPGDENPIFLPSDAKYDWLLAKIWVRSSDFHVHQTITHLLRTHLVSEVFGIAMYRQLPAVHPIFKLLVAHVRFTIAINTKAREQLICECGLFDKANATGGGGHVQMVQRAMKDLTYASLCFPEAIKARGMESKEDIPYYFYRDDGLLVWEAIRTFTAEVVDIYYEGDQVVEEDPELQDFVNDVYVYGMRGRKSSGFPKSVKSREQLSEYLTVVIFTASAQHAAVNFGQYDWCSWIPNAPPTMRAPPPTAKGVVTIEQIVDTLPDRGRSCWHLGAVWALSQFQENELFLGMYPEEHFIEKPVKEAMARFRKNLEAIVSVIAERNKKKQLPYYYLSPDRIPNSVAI
As to the kind of experiment: The compound was tested in vitro for inhibition against 5-lipoxygenase in intact human neutrophils.
Usually pIC50 stands for −log10 of the IC50, conventionally taken in molar units. A high value points to a small IC50. Take `CC(/C=C/c1cccc(Oc2ccc(F)cc2)c1)N(O)C(N)=O` (stereo not drawn): the pIC50 is 7.10.

`NC(=O)N(O)[C@H]1C[C@@H](c2cccc(Oc3ccc(F)cc3)c2)C1` showed a pIC50 of 6.77.

The molecule `NC(=O)N(O)[C@H]1C[C@H](c2cc3ccccc3s2)C1` showed a negative logarithm of the IC50 (pIC50) of 6.42.
